Measurements reported in publication PMC7406636, “In vivo and in silico characterization of apocynin in reducing organ oxidative stress: A pharmacokinetic and pharmacodynamic study” (Pharmacology Research & Perspectives, 2020).

Assay: Time-dependent distribution of apocynin in plasma, urine and tissues after iv bolus injection (HPLC-MS/MS)
Assay type: in vivo, mouse
Conditions: plasma, brain and liver samples after iv bolus injection of apocynin, HPLC-MS/MS
Protocol: All studies were performed in accordance with the protocols approved by the Home Office under the Animals (Scientific Procedures) Act 1986, UK. For the PKPD study, male CD1 mice (Charles River Ltd) at 12 weeks of age with a body weight range between 25 and 30 g were used for the study. Mice were fasted 12 hours before bolus iv injection of apocynin at 5 mg/kg body weight (dosing volume 5 mL/kg) via a lateral tail vein. Control mice were injected with vehicle (solvent of apocynin) at each time points. Four mice/per time points were sacrificed at 0, 1, 2.5, 5, 15, 30, 60 minutes and then at 3, 6, 12, and 24 hours after iv injection of apocynin. Blood samples were collected and centrifuged at 2000 g, 4°C for 10 minutes for plasma collection. Urine samples were collected from bladders. Tissues were harvested for further experiments.
The detection of apocynin in tissue sample was performed as described previously with some modifications. ^17 In brief, apocynin was detected using an Accela HPLC coupled to a linear ion‐trap tandem mass spectrometry (LTQ‐Orbitrap XL; Thermo‐Fisher Scientific) (HPLC‐MS/MS) in the negative ion mode. Phenacetin (500 ng/mL) was used as an internal standard in every vial. A reversed‐phase 50 × 2.1 mm ID, […], 175 Å pore C18 Hypersil Gold column (Thermo Scientific) was used with injection volume set at 5 µL for the separation of apocynin and phenacetin. Calibration curve used for PK analysis was constructed by spiking apocynin in mouse plasma using eight calibrators ranging from 1 to 10000 ng/mL with great reproducibility and R ^2 ≥ 0.996 for subsequent 5 separate experiments on different days. […] Limit of detection for apocynin was set up at signal to noise ratio ≥ 3, ^18 which is 1 ng/mL in our system. The limitation of quantification was set up at signal to noise ratio ≥ 10, which is 10 ng/mL in our system. Orbitrap component was used for the full scan spectra of apocynin and diapocynin.

## COc1cc(C(C)=O)cc(-c2cc(C(C)=O)cc(OC)c2O)c1O [Diapocynin]
  diapocynin detection as metabolite in samples: not detected
